Consider six compounds from ChEMBL document CHEMBL5331044, “Recent advances in the development of EGFR degraders: PROTACs and LYTACs” (Eur J Med Chem, 2022).

Where only a bound is given, the exact number is not on record here.

The target in assay [1] is Epidermal growth factor receptor (Homo sapiens, UniProt P00533, EX19DEL). The experiment in a line: Inhibition of EGFR del19 mutant in human HCC827 cells. It is filed as cell-based.
In assay [2] the target is T1, Epidermal growth factor receptor (Homo sapiens, UniProt P00533). The experiment in a line: Inhibition of wild type EGFR in human A-431 cells. In kind it is cell-based.
The target of assay [3] is T1, Epidermal growth factor receptor. The experiment in a line: Inhibition of EGFR in human NCI-H1975 cells. It is filed as cell-based.
Assay [4] has the same target. The experiment in a line: Inhibition of wild type EGFR in human A549 cells. In kind it is cell-based.
The subject of assay [5] is NCI-H1975. The experiment in a line: Antiproliferative activity against human NCI-H1975 cells expressing EGFR L858R/T790M mutant assessed as inhibition of cell growth. In kind it is functional, cell-based.
Another assay concerns A-431. The experiment in a line: Antiproliferative activity against human A-431 cells expressing wild type EGFR assessed as inhibition of cell growth. It is filed as functional, cell-based.
Another assay deals with BaF3. The experiment in a line: Antiproliferative activity against mouse BaF3 cells transfected with EGFR […]/T790M mutant assessed as inhibition of cell growth. In kind it is functional, cell-based.
The test system of assay [6] is Epidermal growth factor receptor (Homo sapiens), P00533 [UNDEFINED MUTATION]. Nature of the assay: Inhibition of EGFR del19 mutant (unknown origin) assessed as fold change.
For assay [7], the system named is NCI-H1975. The experiment in a line: Antiproliferative activity against human NCI-H1975 cells expressing EGFR T790M mutant assessed as inhibition of EGFR phosphorylation. In kind it is functional, cell-based.
Assay [8] addresses von Hippel-Lindau disease tumor suppressor/Receptor tyrosine-protein kinase erbB-2 (Homo sapiens, UniProt P04626+P40337). The experiment in a line: PROTAC activity at VHL/HER2 in human SK-BR-3 cells assessed as protein degradation incubated for 24 hrs by immunoblot analysis. In kind it is cell-based.
In assay [9] the target is von Hippel-Lindau disease tumor suppressor/Epidermal growth factor receptor (Homo sapiens, UniProt P00533+P40337). The experiment in a line: PROTAC activity at VHL/EGFR ins20 mutant in human HeLa cells assessed as protein degradation incubated for 24 hrs by immunoblot analysis. It is filed as cell-based. (In general: A western blot detects proteins with antibodies after separation by electrophoresis.)

T1 sequence (P00533 whole entry): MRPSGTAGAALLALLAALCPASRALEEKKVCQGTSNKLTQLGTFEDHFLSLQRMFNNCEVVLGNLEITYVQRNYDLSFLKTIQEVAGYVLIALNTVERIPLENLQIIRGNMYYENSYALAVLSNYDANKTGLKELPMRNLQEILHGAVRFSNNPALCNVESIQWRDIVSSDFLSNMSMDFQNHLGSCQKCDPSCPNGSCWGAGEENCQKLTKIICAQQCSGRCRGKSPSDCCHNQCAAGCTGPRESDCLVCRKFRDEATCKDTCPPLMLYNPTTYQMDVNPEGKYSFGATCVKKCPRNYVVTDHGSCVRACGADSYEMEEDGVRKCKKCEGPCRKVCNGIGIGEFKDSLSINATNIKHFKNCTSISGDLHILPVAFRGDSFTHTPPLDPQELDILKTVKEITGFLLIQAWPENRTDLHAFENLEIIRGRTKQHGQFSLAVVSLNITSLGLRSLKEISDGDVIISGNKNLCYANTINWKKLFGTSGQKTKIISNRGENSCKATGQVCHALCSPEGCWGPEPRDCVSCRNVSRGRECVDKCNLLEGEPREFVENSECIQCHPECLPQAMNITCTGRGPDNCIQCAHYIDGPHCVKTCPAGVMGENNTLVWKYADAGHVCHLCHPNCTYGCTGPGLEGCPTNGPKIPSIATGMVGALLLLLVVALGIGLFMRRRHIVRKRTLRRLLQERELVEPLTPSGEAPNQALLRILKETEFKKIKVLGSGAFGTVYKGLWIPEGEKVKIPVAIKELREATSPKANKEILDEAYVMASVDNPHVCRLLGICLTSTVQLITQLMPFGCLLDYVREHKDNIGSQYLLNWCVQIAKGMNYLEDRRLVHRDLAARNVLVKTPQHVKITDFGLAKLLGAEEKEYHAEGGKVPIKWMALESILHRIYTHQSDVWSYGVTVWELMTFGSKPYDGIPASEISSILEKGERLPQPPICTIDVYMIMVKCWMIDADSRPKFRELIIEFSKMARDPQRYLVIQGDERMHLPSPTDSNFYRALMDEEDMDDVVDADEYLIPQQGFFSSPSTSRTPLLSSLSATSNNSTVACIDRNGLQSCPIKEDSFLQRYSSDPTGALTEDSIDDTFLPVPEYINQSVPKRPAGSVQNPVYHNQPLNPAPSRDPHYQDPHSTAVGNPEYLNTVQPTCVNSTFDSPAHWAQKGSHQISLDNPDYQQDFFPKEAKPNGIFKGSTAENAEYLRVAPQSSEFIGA
Sequence of Epidermal growth factor receptor (Homo sapiens, UniProt P00533, EX19DEL) (P00533 whole entry, looked up, stated change not applied): as the sequence (P00533 whole entry) above
Sequence of Epidermal growth factor receptor (Homo sapiens), P00533 [UNDEFINED MUTATION] (P00533 whole entry, looked up, stated change not applied): as the sequence (P00533 whole entry) above
Sequence of von Hippel-Lindau disease tumor suppressor/Receptor tyrosine-protein kinase erbB-2 (P04626 whole entry): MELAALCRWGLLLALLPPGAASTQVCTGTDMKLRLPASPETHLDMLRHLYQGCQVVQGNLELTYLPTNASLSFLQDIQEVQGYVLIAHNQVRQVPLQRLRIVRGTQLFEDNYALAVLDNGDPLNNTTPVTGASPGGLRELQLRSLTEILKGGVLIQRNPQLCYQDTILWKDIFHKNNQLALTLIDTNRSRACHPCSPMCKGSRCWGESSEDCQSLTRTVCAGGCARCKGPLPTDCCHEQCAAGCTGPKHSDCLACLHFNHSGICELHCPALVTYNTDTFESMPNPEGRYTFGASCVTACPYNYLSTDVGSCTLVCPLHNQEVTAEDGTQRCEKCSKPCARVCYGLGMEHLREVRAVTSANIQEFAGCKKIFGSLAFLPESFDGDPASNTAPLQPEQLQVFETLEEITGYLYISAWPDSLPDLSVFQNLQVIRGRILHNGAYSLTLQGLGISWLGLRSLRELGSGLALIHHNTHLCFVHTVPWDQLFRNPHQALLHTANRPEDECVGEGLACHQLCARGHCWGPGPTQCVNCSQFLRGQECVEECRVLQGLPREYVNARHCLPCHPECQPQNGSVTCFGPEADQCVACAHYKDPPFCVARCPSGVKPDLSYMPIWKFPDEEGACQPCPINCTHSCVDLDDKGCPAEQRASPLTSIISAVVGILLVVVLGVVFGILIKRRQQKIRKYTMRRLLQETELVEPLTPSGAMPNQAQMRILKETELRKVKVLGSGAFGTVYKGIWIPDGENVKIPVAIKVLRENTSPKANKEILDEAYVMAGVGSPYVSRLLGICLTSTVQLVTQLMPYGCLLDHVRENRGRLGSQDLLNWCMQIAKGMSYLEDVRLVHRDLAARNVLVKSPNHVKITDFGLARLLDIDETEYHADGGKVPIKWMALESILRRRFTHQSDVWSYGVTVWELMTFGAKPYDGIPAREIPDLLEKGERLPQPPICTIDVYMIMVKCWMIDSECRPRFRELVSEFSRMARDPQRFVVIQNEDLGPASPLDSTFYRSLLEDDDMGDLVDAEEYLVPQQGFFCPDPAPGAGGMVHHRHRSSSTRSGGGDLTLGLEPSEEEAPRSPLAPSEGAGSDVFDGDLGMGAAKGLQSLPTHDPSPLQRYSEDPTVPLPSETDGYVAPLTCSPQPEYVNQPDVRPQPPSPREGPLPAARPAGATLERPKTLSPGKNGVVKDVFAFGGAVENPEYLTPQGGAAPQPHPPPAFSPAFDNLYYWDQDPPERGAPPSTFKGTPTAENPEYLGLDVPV
Sequence of von Hippel-Lindau disease tumor suppressor/Receptor tyrosine-protein kinase erbB-2 (P40337 whole entry): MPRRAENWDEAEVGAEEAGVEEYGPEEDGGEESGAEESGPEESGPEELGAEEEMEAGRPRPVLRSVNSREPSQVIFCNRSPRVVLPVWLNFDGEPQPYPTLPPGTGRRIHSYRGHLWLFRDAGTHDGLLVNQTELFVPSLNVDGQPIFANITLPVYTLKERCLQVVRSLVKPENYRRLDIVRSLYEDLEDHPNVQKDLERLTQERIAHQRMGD

With `Cc1ncsc1-c1ccc(CNC(=O)[C@@H]2C[C@@H](O)CN2C(=O)[C@@H](NC(=O)CCCCCCCCCCn2cc(COc3cc4ncnc(Nc5ccc(F)c(Cl)c5)c4cc3NC(=O)/C=C/CN3CCCCC3)nn2)C(C)(C)C)cc1`, the IC50 is 6 nM in assay [1], more than 20000 nM in assay [2], more than 20000 nM in [3] and more than 20000 nM in [4].
With `O=C(Nc1nccs1)C(c1cc(F)ccc1O)N1Cc2ccccc2C1=O` (stereo unspecified), the IC50 was determined as 2 nM in the assay with NCI-H1975 [5] and 1900 nM in the assay on A-431.
`O=C1CCC(N2C(=O)c3cccc(NCCOCCOCCOCCN4CCN(c5ccc(-c6ccc7c(c6)C(=O)N(C(C(=O)Nc6nccs6)c6ccccc6)C7)cn5)CC4)c3C2=O)C(=O)N1` (stereo unspecified): in the assay with BaF3, the IC50 turned out to be 96 nM.
For `COc1cc2ncnc(N(Cc3ccc([N+](=O)[O-])cc3)c3ccc(F)c(Cl)c3)c2cc1OCCOCCOCCOCCC(=O)Nc1cccc2c1CN(C1CCC(=O)NC1=O)C2=O` (stereo unspecified), the fold change (FC) in assay [6] was found to be 1000.
Take `CN(C)C/C=C/C(=O)Nc1cc2c(Nc3ccc(F)c(Cl)c3)ncnc2cc1O[C@H]1CCOC1` [AFATINIB]: the IC50 in the assay with NCI-H1975 [7] worked out at 93 nM.
As for `Cc1ncsc1-c1ccc(CNC(=O)[C@@H]2C[C@@H](O)CN2C(=O)[C@@H](NC(=O)COCCOCCOc2ccc(-c3ccc4ncnc(Nc5ccc(OCc6cccc(F)c6)c(Cl)c5)c4c3)cc2)C(C)(C)C)cc1`, the 50% degradation concentration (DC50) in assay [8] came to 102 nM; in assay [9] it was 736 nM.

In general, IC50 refers to the midpoint of a concentration-inhibition curve. As a reminder, the DC50 is the concentration at which degradation of the target reaches its halfway point.
